Measured values as given in the supplement of paper PMC4862054.

Assays:
DU-4475 [1] = assay: drug sensitivity score (DSS), CellTox Green (DSS (AUC-based score)); higher = stronger drug effect (viability inhibition or cytotoxicity); extreme values may be limits of the assay; details: incubation time: 72 h
Method in brief: (§1)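 In 384-well plates, compound was laid out at 5 concentrations in 10-fold steps over a 10,000-fold range specific to each compound, and breast cancer cell lines were seeded on top in 20 µl suspension for a 72 h incubation. CellTox Green fluorescence and then CellTiter-Glo luminescence were read, and each plate was normalised to 0.1 % DMSO and a positive kill control. The drug sensitivity score was calculated from the area under the fitted dose-response curve.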

BT-474 [2] = assay: as above; details: incubation time: 72 h
Method in brief: as §1

HDQ-P1 = assay: as above; details: incubation time: 72 h
Method in brief: as §1

CAL-51 [3] = assay: as above; details: incubation time: 72 h
Method in brief: as §1

CAL-148 [4] = assay: as above; details: incubation time: 72 h
Method in brief: as §1

HCC1599 = assay: as above; details: incubation time: 72 h
Method in brief: as §1

MFM-223 = assay: as above; details: incubation time: 72 h
Method in brief: as §1

MDA-MB-453 [5] = assay: as above; details: incubation time: 72 h
Method in brief: as §1

HCC1143 [6] = assay: as above; details: incubation time: 72 h
Method in brief: as §1

MDA-MB-468 = assay: as above; details: incubation time: 72 h
Method in brief: as §1

CAL-85-1 = assay: as above; details: incubation time: 72 h
Method in brief: as §1

MDA-MB-436 [7] = assay: as above; details: incubation time: 72 h
Method in brief: as §1

BT-549 [8] = assay: as above; details: incubation time: 72 h
Method in brief: as §1

CAL-120 [9] = assay: as above; details: incubation time: 72 h
Method in brief: as §1

MCF-10A [10] = assay: as above; details: incubation time: 72 h
Method in brief: as §1

SK-BR-3 = assay: drug sensitivity score (DSS), CellTiter-Glo (DSS (AUC-based score)); higher = stronger drug effect (viability inhibition or cytotoxicity); extreme values may be limits of the assay; details: incubation time: 72 h
Method in brief: as §1

DU-4475 [11] = assay: as above; details: incubation time: 72 h
Method in brief: as §1

BT-474 [12] = assay: as above; details: incubation time: 72 h
Method in brief: as §1

MDA-MB-453 [13] = assay: as above; details: incubation time: 72 h
Method in brief: as §1

HCC1143 [14] = assay: as above; details: incubation time: 72 h
Method in brief: as §1

MDA-MB-436 [15] = assay: as above; details: incubation time: 72 h
Method in brief: as §1

BT-549 [16] = assay: as above; details: incubation time: 72 h
Method in brief: as §1

CAL-120 [17] = assay: as above; details: incubation time: 72 h
Method in brief: as §1

MCF-10A [18] = assay: as above; details: incubation time: 72 h
Method in brief: as §1

CAL-51 [19] = details: 72 h
Method in brief: (§2)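 Each 384-well plate was pre-loaded with compound dissolved in 5 µl medium, received breast cancer cells in 20 µl suspension, and was incubated 72 h. A 2.5 µl addition of CellTiter-Blue for 2 h at 37 °C was followed by a fluorescence read at 560/590 nm. Data were normalised per plate to vehicle and a positive kill control and checked by Z'-factor. EC50 was fitted from the percent-inhibition dose-response curve, censored at the highest concentration, excluding rows with a drug sensitivity score of zero.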

CAL-148 [20] = details: 72 h
Method in brief: as §2

SMILES	drug sensitivity score (DU-4475 [1])	drug sensitivity score (BT-474 [2])	drug sensitivity score (HDQ-P1)	drug sensitivity score (CAL-51 [3])	drug sensitivity score (CAL-148 [4])	drug sensitivity score (HCC1599)	drug sensitivity score (MFM-223)	drug sensitivity score (MDA-MB-453 [5])	drug sensitivity score (HCC1143 [6])	drug sensitivity score (MDA-MB-468)	drug sensitivity score (CAL-85-1)	drug sensitivity score (MDA-MB-436 [7])	drug sensitivity score (BT-549 [8])	drug sensitivity score (CAL-120 [9])	drug sensitivity score (MCF-10A [10])	drug sensitivity score (SK-BR-3)	drug sensitivity score (DU-4475 [11])	drug sensitivity score (BT-474 [12])	drug sensitivity score (MDA-MB-453 [13])	drug sensitivity score (HCC1143 [14])	drug sensitivity score (MDA-MB-436 [15])	drug sensitivity score (BT-549 [16])	drug sensitivity score (CAL-120 [17])	drug sensitivity score (MCF-10A [18])	EC50, CellTiter-Blue viability (CAL-51 [19]) [nM]	EC50, CellTiter-Blue viability (CAL-148 [20]) [nM]
CN(C)C/C=C/C(=O)Nc1cc2c(Nc3ccc(F)c(Cl)c3)ncnc2cc1O[C@H]1CCOC1 [Afatinib]	0	3.66	0	0	0	0	0	0	1.18	0	8	0	0	0	0	17.8	0	0	4.69	0	0	0.0448	0	17.4	4750	65
CO[C@H]1C[C@@H]2CC[C@@H](C)[C@@](O)(O2)C(=O)C(=O)N2CCCC[C@H]2C(=O)O[C@H]([C@H](C)C[C@@H]2CC[C@@H](OC(=O)C(C)(CO)CO)[C@H](OC)C2)CC(=O)[C@H](C)/C=C(\C)[C@@H](O)[C@@H](OC)C(=O)[C@H](C)C[C@H](C)/C=C/C=C/C=C/1C [Temsirolimus]	0	0	0	0	0	0	0	0	0	0	0	0	0	0	0	11	5.2	2.49	9.78	8.92	3.51	12.7	7.34	0	1.36	0.47
CC[C@]1(O)C[C@@H]2CN(CCc3c([nH]c4ccccc34)[C@@](C(=O)OC)(c3cc4c(cc3OC)N(C)[C@H]3[C@@](O)(C(=O)OC)[C@H](OC(C)=O)[C@]5(CC)C=CCN6CC[C@]43[C@@H]65)C2)C1 [Vinblastine]	0	8.39	0	22.3	0	2.86	12.2	0	9.2	12.8	6.07	0	10.2	3.49	12.5	27.5	8.05	14.3	13.1	15.8	22.8	21.3	14.2	10.9	26.5	13.2
Nc1nc(Cl)nc2c1ncn2[C@H]1C[C@H](O)[C@@H](CO)O1 [Cladribine]	0	0	0	0	0	0	3.32	0	1.86	14.3	0	0	0	0	0	0	0	0	0	0	0	6.43	1.39	0	> 1000	> 1000
Cc1c2oc3c(C)ccc(C(=O)N[C@@H]4C(=O)N[C@H](C(C)C)C(=O)N5CCC[C@H]5C(=O)N(C)CC(=O)N(C)[C@@H](C(C)C)C(=O)O[C@@H]4C)c3nc-2c(C(=O)N[C@@H]2C(=O)N[C@H](C(C)C)C(=O)N3CCC[C@H]3C(=O)N(C)CC(=O)N(C)[C@@H](C(C)C)C(=O)O[C@@H]2C)c(N)c1=O [Dactinomycin]	0	2.02	0	22.9	21.3	0	4.62	0	1.67	10.7	16.4	0	6.35	0	15.4	21.3	30.3	21	18.7	22.4	21	31.3	17.8	23.6	2.72	0.76
COc1cccc2c1C(=O)c1c(O)c3c(c(O)c1C2=O)C[C@@](O)(C(=O)CO)C[C@@H]3O[C@H]1C[C@H](N)[C@H](O)[C@H](C)O1 [Doxorubicin]	0	0	0	10.9	1.99	0	1.83	0	0	5.83	1.33	0	0	0	0	6.19	8.65	7.08	2.56	1.04	4.44	8.09	1.5	1.13	164	53.3
CN1CC[C@H](c2c(O)cc(O)c3c(=O)cc(-c4ccccc4Cl)oc23)[C@H](O)C1 [Alvocidib]	0	0.211	7.43	4.44	0	0	7.92	0	0	0	15.3	0	2.81	1.81	16.1	19.8	17.3	16.9	12.8	14.9	18.8	17.7	14.1	16.2	185	125
Nc1ccn([C@@H]2O[C@H](CO)[C@@H](O)[C@@H]2O)c(=O)n1 [Cytarabine]	0	0	0	13.1	7.92	0	0	0	0	0	0	0	0	0	0.944	12.2	3.25	0.361	0	3.36	10.5	7.56	0.601	0	266	32.3
COc1cccc2cc(-c3nc([C@H]4CC[C@H](C(=O)O)CC4)n4ncnc(N)c34)[nH]c12 [OSI-027]	0	0	0	0	0	0	0	0	0	0	0.0118	0	0	0	0	13.4	2.39	4.09	8	2.97	4.39	6.24	5.45	4.28	1580	1640
CN1CCC(COc2cnc(-c3cccc(Cn4nc(-c5cccc(C#N)c5)ccc4=O)c3)nc2)CC1	0	0	0	0	0	0	0	0	0	0	0.655	0	0	0	0	0	0	0	0	0	1.23	0	0	0	4990	5800
